Results as given in the NIST ThermoML archive (doi:10.1021/je8007843).
Numbers after ± are expanded uncertainties.

Settings: Crystal; visual observation

Row | Normal melting temperature [°C] | Structure (SMILES)
1 | 121.7 ± 1.2 | Nc1cccc(N)n1 [pyridine-2,6-diamine]
2 | 57.6 ± 0.6 | Nc1ccccn1 [2-pyridinamine]
